Measured values taken from ChEMBL document CHEMBL1148221, “Constituents of Senecio chionophilus with potential antitubercular activity” (2004).
Converted amounts (≈) assume the structure as drawn.

test system: Mycobacterium tuberculosis; assay: Antitubercular activity against Mycobacterium tuberculosis H37Rv ATCC 27294 by microplate Alamar blue assay; type: functional

SMILES	MIC
C/C=C(/C)C(=O)O[C@@H]1c2c(C)coc2C(=O)[C@@H]2[C@@H](O)CC[C@H](C)[C@@]12C	114 mg/L (≈ 329 µM)
CCC(C)C(=O)O[C@@H]1c2c(C)coc2C(=O)[C@@H]2[C@@H](O)CC[C@H](C)[C@@]12C (some centres not stated)	119 mg/L (≈ 342 µM)
CC(=O)c1ccc(O)cc1 [4-HYDROXYACETOPHENONE]	121 mg/L (≈ 889 µM)
C=C(C)[C@@H]1CC[C@]2(C(=O)O)CC[C@]3(C)[C@H](CC[C@@H]4[C@@]5(C)CC[C@H](O)C(C)(C)[C@@H]5CC[C@]43C)[C@@H]12 [BETULINIC ACID]	32 mg/L (≈ 70.1 µM)
CC1(C)CC[C@]2(C(=O)O)CC[C@]3(C)C(=CC[C@@H]4[C@@]5(C)CC[C@H](O)C(C)(C)[C@@H]5CC[C@]43C)[C@@H]2C1 [OLEANOLIC_ACID]	64 mg/L (≈ 140 µM)
CO[C@H]1/C=C/O[C@@]2(C)Oc3c(C)c(O)c4c(O)c(c(/C=N/N5CCN(C)CC5)c(O)c4c3C2=O)NC(=O)/C(C)=C\C=C\[C@H](C)[C@H](O)[C@@H](C)[C@@H](O)[C@@H](C)[C@H](OC(C)=O)[C@@H]1C [RIFAMPIN]	0.03 mg/L (≈ 0.0365 µM)
C[C@H]1[C@H](C)CC[C@]2(C(=O)O)CC[C@]3(C)C(=CC[C@@H]4[C@@]5(C)CC[C@H](O)C(C)(C)[C@@H]5CC[C@]43C)[C@H]12 [URSOLIC ACID]	32 mg/L (≈ 70.1 µM)
